Data on 24 compounds can be found in ChEMBL document CHEMBL1201862, “PubChem BioAssay data set” (2004).

Data set [1] deals with T1, Ubiquitin-conjugating enzyme E2 N (Homo sapiens, UniProt P61088).
T1 sequence (P61088 whole entry): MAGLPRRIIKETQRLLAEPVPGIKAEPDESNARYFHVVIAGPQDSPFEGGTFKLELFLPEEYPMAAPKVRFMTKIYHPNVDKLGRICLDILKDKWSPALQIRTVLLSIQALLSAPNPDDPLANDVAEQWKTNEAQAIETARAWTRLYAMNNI
The class given is functional.

Data set [2] deals with T2, Bcl-2-related protein A1 (Mus musculus, UniProt Q07440).
T2 sequence (Q07440 whole entry): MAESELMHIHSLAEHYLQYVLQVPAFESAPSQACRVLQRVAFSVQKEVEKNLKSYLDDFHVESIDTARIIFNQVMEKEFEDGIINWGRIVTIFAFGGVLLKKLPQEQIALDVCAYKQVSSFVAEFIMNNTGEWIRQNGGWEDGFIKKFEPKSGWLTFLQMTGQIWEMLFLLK
Type of data set: functional.

Data set [3] addresses T1, Ubiquitin-conjugating enzyme E2 N. Type of data set: functional. This is another data set of the same source.
Data set [4] deals with Cytochrome P450 2C9 (Homo sapiens, UniProt P11712).
Data set [5] addresses Cytochrome P450 3A4 (Homo sapiens, UniProt P08684).
The target in data set [6] is Voltage-dependent T-type calcium channel subunit alpha-1H (Homo sapiens, UniProt O95180). Type of data set: functional.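 Also: channel activity triggered by adding a high calcium stimulation buffer.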
Data set [7] addresses Cytochrome P450 2C19 (Homo sapiens, UniProt P33261). Description: Cytochrome panel assay with activity outcomes. Panel member name: p450-cyp2c19 Compounds with AC50 equal or less than 10 uM are considered active. The class given is functional. The following applies: read-out: AC50.
Data set [8] deals with T3, Aminopeptidase N (Plasmodium falciparum FcB1/Columbia, UniProt O96935).
T3 sequence (O96935 whole entry): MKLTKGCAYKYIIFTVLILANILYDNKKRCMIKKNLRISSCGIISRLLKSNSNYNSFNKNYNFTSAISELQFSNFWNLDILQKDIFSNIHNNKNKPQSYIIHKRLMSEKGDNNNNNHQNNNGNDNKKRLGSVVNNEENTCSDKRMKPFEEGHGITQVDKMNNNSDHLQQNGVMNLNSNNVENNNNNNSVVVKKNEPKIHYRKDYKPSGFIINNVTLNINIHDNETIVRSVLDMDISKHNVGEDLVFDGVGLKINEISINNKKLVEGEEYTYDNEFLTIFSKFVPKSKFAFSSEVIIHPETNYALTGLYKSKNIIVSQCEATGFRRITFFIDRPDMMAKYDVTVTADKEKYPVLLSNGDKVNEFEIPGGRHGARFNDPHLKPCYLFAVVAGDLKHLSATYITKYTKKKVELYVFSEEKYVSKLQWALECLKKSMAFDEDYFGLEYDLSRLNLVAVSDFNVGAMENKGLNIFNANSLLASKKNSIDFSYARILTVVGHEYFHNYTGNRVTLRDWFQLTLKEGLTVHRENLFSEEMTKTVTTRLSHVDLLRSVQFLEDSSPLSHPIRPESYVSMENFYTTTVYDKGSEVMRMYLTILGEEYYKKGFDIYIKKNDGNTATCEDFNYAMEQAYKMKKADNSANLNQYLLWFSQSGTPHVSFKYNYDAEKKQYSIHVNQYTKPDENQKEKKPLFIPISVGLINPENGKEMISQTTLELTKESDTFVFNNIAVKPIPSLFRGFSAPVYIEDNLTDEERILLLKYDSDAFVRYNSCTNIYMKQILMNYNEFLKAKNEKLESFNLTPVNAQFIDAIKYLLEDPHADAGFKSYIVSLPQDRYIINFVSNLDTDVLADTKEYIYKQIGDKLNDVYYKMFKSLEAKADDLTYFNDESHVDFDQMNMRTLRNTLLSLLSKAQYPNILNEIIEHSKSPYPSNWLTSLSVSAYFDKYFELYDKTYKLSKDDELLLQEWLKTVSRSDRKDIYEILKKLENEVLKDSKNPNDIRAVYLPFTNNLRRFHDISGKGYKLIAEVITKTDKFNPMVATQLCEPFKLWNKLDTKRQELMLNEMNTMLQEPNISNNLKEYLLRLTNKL
Description: P. falciparum M1AAP inhibitors, biochemical, fluorogenic H-Leu-NHMec substrate, 1536-well (AID 1445). More on the design: species or system Plasmodium falciparum 3D7, 3D7.

Data set [9] deals with T4, Short transient receptor potential channel 4 (Mus musculus, UniProt Q9QUQ5).
T4 sequence (Q9QUQ5 whole entry): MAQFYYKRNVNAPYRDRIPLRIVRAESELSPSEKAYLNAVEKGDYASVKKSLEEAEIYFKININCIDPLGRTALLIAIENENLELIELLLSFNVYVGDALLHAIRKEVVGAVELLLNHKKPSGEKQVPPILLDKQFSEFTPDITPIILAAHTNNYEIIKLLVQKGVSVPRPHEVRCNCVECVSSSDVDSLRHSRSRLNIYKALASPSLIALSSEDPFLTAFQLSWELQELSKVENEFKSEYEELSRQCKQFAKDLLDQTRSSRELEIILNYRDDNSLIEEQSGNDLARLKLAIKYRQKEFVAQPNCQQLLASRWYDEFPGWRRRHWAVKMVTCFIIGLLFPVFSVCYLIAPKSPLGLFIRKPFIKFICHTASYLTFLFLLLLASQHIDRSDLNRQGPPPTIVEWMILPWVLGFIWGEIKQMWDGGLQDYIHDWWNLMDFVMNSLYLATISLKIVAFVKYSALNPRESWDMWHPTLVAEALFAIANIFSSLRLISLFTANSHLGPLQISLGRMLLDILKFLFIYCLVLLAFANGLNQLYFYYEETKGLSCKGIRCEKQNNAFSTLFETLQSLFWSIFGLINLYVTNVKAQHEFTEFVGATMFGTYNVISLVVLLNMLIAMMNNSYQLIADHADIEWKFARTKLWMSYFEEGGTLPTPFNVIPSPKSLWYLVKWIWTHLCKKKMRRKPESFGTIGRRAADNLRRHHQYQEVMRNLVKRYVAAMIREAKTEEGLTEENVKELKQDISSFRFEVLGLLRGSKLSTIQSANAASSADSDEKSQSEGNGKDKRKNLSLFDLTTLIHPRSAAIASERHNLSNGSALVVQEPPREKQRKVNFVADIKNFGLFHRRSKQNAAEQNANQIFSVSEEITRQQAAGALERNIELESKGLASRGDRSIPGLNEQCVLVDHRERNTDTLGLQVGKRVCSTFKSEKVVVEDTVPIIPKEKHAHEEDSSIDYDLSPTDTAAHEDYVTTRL
Description: mouse TRPC4 channel activators, dose response, cell-based, HEK293 TRPC4/mu-opioid, Fluo-4 calcium (AID 434937). Type of data set: functional.

The test system of data set [10] is Streptococcus sp. 'group A'. Description: growth inhibition of control SK(-) GAS strain, dose response, counter-screen for streptokinase expression inhibitor project, luminescence, kanamycin, BacTiterGlo, confirmation (AID 1900). The class given is functional, organism-based.
Data set [11] can be described thus: THP-1 cell cytotoxicity, dose response, cytotoxicity control for non-replicating M. tuberculosis project (AID 489025). The class given is functional.
Data set [12] concerns the target T5, Streptokinase A (Streptococcus pyogenes serotype M1, UniProt P10520).
T5 sequence (P10520 whole entry): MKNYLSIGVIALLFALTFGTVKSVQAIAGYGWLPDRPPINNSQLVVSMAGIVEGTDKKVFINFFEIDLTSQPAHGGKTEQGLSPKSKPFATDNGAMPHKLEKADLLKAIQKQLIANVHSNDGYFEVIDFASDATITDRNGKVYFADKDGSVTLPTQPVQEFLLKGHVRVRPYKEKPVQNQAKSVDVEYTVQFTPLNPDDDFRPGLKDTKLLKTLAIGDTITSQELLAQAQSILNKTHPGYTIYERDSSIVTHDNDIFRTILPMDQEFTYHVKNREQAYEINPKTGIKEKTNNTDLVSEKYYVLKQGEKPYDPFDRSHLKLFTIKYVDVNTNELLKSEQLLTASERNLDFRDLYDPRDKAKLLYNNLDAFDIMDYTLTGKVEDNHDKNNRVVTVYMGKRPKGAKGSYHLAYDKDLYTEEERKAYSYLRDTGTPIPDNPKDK
In words: S. pyogenes streptokinase expression inhibitors, potency, dose response, plasminogen activation absorbance, OD405 (AID 1914).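 Also: secreted streptokinase activity via plasminogen activation per viability signal from cell pellet.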 Type of data set: functional, Streptococcus pyogenes M1 GAS.

The test system of data set [13] is Streptococcus. In words: Group A Streptococcus viability loss, dose response, counter-screen for streptokinase expression inhibitor project, luminescence, BacTiterGlo (AID 1915).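 Also: potency for reduction of bacterial viability or growth.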 The class given is functional, organism-based.
A short description of data set [14]: HepG2 cell cytotoxicity, dose response, cytotoxicity control for non-replicating M. tuberculosis project (AID 489018). Type of data set: functional. To be noted: Mycobacterium tuberculosis.
A short description of data set [15]: cells. The class given is functional.
The nature of data set [16]: microbe, parasite or virus in culture. Type of data set: functional. To be noted: Mycobacterium tuberculosis.

Each structure is given as a SMILES string. Activity calls are given as the source filed them. Some results are limits rather than exact numbers.

Chain of Cytochrome P450 3A4 (P08684 whole entry): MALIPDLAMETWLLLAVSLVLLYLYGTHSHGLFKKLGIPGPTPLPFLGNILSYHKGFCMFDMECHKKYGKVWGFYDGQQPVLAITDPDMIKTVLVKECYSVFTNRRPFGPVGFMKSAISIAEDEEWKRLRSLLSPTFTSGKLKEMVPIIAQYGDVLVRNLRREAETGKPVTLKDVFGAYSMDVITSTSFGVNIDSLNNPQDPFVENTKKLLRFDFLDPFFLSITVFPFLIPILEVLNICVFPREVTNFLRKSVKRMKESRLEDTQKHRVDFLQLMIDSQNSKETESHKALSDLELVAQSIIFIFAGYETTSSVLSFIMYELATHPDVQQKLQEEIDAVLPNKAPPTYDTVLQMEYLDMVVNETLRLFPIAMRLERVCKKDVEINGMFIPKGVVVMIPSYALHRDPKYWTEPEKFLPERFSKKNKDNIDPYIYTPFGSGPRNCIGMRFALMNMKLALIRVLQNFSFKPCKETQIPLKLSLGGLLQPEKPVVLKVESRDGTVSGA
Chain of Voltage-dependent T-type calcium channel subunit alpha-1H (O95180 whole entry): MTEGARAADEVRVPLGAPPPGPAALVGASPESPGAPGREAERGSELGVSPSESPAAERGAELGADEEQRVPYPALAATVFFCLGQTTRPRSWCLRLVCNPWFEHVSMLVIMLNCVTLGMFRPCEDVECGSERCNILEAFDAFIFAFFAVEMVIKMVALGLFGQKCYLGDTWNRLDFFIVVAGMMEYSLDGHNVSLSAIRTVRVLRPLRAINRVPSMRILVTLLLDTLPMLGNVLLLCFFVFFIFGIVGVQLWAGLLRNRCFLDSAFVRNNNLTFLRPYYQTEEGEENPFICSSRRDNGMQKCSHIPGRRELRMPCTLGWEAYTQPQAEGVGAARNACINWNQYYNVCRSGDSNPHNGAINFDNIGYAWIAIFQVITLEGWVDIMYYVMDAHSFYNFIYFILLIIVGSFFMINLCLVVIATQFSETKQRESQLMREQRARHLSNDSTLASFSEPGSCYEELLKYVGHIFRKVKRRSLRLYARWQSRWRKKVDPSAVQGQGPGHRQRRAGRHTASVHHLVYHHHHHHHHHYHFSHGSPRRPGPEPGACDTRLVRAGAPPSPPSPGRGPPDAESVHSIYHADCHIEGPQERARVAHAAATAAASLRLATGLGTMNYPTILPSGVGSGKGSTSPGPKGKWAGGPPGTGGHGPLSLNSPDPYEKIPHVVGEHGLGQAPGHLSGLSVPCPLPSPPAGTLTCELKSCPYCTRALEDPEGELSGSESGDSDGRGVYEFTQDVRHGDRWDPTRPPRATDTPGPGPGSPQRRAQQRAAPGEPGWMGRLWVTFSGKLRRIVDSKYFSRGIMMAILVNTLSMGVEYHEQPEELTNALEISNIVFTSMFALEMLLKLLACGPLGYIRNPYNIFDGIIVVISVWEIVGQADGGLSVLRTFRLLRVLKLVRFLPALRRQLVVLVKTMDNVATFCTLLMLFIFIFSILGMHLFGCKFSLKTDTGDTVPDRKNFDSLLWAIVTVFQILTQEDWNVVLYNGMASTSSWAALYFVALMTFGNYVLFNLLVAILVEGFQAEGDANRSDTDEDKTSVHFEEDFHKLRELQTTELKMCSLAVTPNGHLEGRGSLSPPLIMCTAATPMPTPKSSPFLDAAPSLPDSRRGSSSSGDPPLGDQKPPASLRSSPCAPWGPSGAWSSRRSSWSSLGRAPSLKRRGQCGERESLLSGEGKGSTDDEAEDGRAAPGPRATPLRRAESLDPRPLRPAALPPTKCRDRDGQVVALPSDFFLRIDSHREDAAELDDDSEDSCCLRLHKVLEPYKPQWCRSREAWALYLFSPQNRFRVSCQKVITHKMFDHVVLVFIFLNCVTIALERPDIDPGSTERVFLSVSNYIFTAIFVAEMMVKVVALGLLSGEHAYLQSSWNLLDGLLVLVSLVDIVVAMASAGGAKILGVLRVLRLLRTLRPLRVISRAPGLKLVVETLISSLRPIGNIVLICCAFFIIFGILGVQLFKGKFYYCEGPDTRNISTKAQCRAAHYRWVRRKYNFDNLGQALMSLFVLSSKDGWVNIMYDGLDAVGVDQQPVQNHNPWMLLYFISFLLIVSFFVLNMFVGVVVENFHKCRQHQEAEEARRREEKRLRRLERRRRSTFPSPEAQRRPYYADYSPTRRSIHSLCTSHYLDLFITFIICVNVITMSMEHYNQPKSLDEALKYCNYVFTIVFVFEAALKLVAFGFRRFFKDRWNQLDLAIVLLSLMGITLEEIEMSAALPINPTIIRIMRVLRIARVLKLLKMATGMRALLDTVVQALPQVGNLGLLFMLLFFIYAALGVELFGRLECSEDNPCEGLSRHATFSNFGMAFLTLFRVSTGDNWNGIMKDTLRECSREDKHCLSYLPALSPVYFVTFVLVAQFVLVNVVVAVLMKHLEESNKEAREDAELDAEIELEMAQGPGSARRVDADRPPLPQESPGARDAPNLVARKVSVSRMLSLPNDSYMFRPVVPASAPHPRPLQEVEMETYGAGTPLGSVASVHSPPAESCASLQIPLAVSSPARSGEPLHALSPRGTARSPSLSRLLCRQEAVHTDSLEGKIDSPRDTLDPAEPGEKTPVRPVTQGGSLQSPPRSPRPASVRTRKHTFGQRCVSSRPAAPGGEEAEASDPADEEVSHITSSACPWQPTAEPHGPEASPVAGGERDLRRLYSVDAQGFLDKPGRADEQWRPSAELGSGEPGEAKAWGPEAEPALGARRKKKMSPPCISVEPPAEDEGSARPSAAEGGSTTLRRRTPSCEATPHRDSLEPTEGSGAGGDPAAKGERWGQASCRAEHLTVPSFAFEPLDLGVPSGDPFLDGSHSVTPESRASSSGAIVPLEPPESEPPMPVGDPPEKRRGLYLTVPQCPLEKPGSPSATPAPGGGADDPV
Chain of Cytochrome P450 2C9 (P11712 whole entry): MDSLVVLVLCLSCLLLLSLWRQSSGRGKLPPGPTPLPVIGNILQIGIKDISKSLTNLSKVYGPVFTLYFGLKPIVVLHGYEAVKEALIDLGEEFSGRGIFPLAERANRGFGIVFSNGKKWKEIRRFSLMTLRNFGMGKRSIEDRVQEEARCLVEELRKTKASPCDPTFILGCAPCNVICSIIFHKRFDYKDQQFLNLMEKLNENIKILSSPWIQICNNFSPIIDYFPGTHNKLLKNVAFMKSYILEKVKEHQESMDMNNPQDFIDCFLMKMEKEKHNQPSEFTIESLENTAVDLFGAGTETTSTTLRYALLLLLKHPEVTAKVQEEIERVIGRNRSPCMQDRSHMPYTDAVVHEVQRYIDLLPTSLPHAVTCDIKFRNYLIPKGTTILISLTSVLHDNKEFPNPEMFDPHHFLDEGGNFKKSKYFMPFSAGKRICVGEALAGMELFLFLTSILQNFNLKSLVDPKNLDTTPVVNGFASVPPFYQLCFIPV
Chain of Cytochrome P450 2C19 (P33261 whole entry): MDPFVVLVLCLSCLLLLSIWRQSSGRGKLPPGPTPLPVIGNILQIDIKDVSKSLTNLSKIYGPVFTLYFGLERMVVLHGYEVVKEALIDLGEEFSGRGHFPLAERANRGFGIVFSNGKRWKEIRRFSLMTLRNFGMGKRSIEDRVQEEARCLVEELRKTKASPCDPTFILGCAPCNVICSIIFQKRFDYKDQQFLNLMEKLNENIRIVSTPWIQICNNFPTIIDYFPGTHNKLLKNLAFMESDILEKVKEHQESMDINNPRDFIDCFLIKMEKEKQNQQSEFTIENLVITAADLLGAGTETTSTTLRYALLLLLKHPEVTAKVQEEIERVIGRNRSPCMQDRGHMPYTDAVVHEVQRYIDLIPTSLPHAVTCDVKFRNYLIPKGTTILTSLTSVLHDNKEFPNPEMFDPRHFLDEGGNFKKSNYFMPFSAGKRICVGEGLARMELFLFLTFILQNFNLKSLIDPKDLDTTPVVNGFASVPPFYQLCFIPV

Turning to `Cc1ccc(-c2oc3ncnc(N)c3c2-c2ccc(C)cc2)cc1`, the results for the IC50 in [1], in [2] and in data set [3] were 12.5 µM (active), > 20 µM (inactive) and 4.6 µM (active), respectively.

`COCCNC(=O)Cn1cnc2ccc(S(=O)(=O)N3CCC(C)CC3)cc2c1=O`: the AC50 was 10 µM (inconclusive) in data set [4] and “inconclusive” in [5].

As to `Cc1ccc(-n2nnnc2-c2cnc(N3CCCC3)nc2C(F)(F)F)cc1`, the EC50 in data set [6] is 8.9 µM (active).

On to `CCOc1cccc(OCCCNCCCOC)c1`, for which the figures for the AC50 in data set [7] and in data set [5] were 28.2 µM (inconclusive) and “inconclusive”, respectively.

In the case of `CN(C)C/C=C/C(=O)Nc1cccc(-c2c[nH]c3ncnc(Oc4ccc(NC(=O)CC(=O)Nc5ccc(F)cc5)cc4F)c23)c1`, the IC50 was 3.5 µM (active) in data set [1], > 20 µM (inactive) in [2] and 2.28 µM (active) in [3].

As to `CCc1nnc(NS(=O)(=O)c2ccc(NC(=S)NC(=O)c3ccc(OC)cc3)cc2)s1`, the half-inhibitory concentration (IC50) in [8] is 60.5 µM (active).

As to `CC(=O)Nc1ccc(C2(c3ccc(NC(C)=O)cc3)C(=O)Nc3ccccc32)cc1`, the EC50 in [9] is 1.5 µM (active).

As for `Cc1ccc(CSc2nnc(SCC(=O)N/N=C/c3ccccc3OCC(=O)O)s2)cc1`, the IC50 in [8] was 30.6 µM (active).

Consider `O=C(N/N=C/c1ccc([N+](=O)[O-])o1)c1ccc(NS(=O)(=O)c2cccs2)cc1`, for which the EC50 in data set [10] was 1.24 µM (active); in [12] it was > 150 µM (not active); in data set [13], 6.83 µM (active). The CC50 was 15.9 µM (active) in [11] and 12.9 µM (active) in [14]. For the same compound, the IC50 in data set [15] is 7.09 µM (active).

Regarding `COc1ccc(C(CNc2nc(-c3cccnc3)nc3ccccc23)N(C)C)cc1` (stereo not given), in data set [9], the EC50 is 0.473 µM (active).

On to `O=C(CCCc1c[nH]c2ccccc12)NCc1ccc2c(c1)OCO2`, for which the EC50 in data set [6] is 2.31 µM (active).

Take `CC1CCN(S(=O)(=O)c2ccc(NC(=O)Cc3ccccc3)cc2)CC1`: the EC50 in data set [6] was 5.25 µM (active).

In the case of `CC(C)c1ccc(OCC(=O)NNC(=S)NC(=O)C2CC2)cc1`, the IC50 in data set [1] is 17.3 µM (active); in data set [2], > 20 µM (inactive); in [3], 6.97 µM (active). Also, the EC50 in data set [10] was 0.85 µM (active); in [13], 1.33 µM (active).

As to `CSc1ccc(C(=O)NCC(c2ccco2)N(C)C)cc1[N+](=O)[O-]` (stereo not given), the EC50 in data set [9] is 0.0333 µM (active).

Turning to `Cc1nn(-c2ccccc2)c(Cl)c1/C=C1\SC(=S)NC1=O`, the IC50 in data set [8] was 46.8 µM (active).

Regarding `O=C(NCC1CCN(c2ccc(S(=O)(=O)N3CCOCC3)cc2)CC1)c1ccc(Cl)cc1`, the CC50 in data set [11] is > 40 µM (active); in data set [16], > 40 µM (active); in data set [14] it was > 20 µM (active). For the same compound, the EC50 in [6] is 21.2 µM (active). Further, the IC50 in data set [15] is 31.3 µM (active).

For the compound `Nc1nonc1C(=O)N/N=C/c1ccc(-c2ccc(Cl)c(C(=O)O)c2)o1`, the IC50 in data set [8] was 43.8 µM (active).

Consider `CN1CCN(c2ncc3nc(-c4ccc(Cl)cc4)c(=O)n(C4CC4)c3n2)CC1`, for which the AC50 result in data set [5] was “inconclusive”.

Turning to `O=C(Cn1nnc2ccccc2c1=O)N[C@@H](Cc1c[nH]c2ccccc12)C(=O)O`, the IC50 in [8] is 71.6 µM (active).

Turning to `COc1ccc(C(CNC(=O)c2cccc(NS(=O)(=O)c3ccc(C)c(F)c3)c2)N(C)C)cc1` (stereo not given), the EC50 in data set [9] was 5.31 µM (active).

In the case of `Cn1c(=O)c2c(ncn2Cc2cccc(Cl)c2)n(C)c1=O`, the results for the IC50 in data set [1], in data set [2] and in data set [3] were 10.4 µM (active), > 20 µM (inactive) and 11.2 µM (active), respectively.

Turning to `Cc1ccc(-c2nn(C)c(=O)c3ccccc23)cc1CNC(=O)c1ccco1`, the IC50 in [8] was 21.1 µM (active).

In the case of `CN(C)C(CNC(C(=O)Nc1ccc(F)cc1)c1ccccc1)c1ccccc1` (stereo not given), the EC50 in data set [9] is 0.596 µM (active).

With `COc1ccccc1OCc1nc(Cc2ccc(Cl)cc2)no1`, in data set [6], the EC50 was 7.9 µM (active).
